Measured values: US11453683B1, “KRas G12D inhibitors” (Mirati Therapeutics, Inc., priority 2019, dated 2022)

System: KRas G12D-mediated phosphorylation of ERK
Assay: Inhibition of KRas G12D-mediated phosphorylation of ERK in AGS cells
Assay type: cell-based
Settings: Homo sapiens; AGS cells expressing G12D, 3 hours, phospho-ERK normalized to GAPDH
Method in brief: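 Fixed, methanol-permeabilized; phospho-ERK (Thr202/Tyr204) by in-cell immunofluorescence normalized to GAPDH. Percent of DMSO control, IC50 by 4-parameter fit.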

Structure (SMILES) | IC50 [µM]
CC(C)(C)[Si](C)(C)OCC1CCC2(COc3nc(N4C[C@H]5CC[C@@H](C4)N5)c4cnc(-c5cccc6cccc(Cl)c56)c(F)c4n3)CCCN12 (stereo partly drawn) [Example 64, 4-((1R,5S)-3,8-diazabicyclo[3.2.1]octan-3-yl)-2-((3-(((tert-butyldimethylsilyl)oxy)methyl)tetrahydro-1H-pyrrolizin-7a(5H)-yl)methoxy)-7-(8-chloronaphthalen-1-yl)-8-fluoropyrido[4,3-d]pyrimidine] | 3.97
N#CC[C@@H]1C[C@@H]2CN(c3nc(OCC45CCCN4CCC5)nc4c(F)c(-c5cc(O)cc6ccccc56)ncc34)C[C@H]1N2 [Example 338, 2-((1R,5S,6S)-3-(8-fluoro-7-(3-hydroxynaphthalen-1-yl)-2-((tetrahydro-1H-pyrrolizin-7a(5H)-yl)methoxy)pyrido[4,3-d]pyrimidin-4-yl)-3,8-diazabicyclo[3.2.1]octan-6-yl)acetonitrile] | > 16.7
Oc1cc(-c2ncc3c(N4C[C@H]5CC[C@@H](C4)N5)nc(OC[C@@]45CCCN4C[C@H](F)C5)nc3c2F)c2c(F)cccc2c1 [Example 282, 4-(4-((1R,5S)-3,8-diazabicyclo[3.2.1]octan-3-yl)-8-fluoro-2-(((2R,7aS)-2-fluorohexahydro-1H-pyrrolizin-7a-yl)methoxy)pyrido[4,3-d]pyrimidin-7-yl)-5-fluoronaphthalen-2-ol] | 0.0049
CN1CCC[C@H]1COc1nc(N2CC3CCC(Cl)(C2)N3)c2cnc(-c3cc(O)cc4ccccc34)c(F)c2n1 (stereo partly drawn) [Example 160, 4-(4-(1-chloro-3,8-diazabicyclo[3.2.1]octan-3-yl)-8-fluoro-2-(((S)-1-methylpyrrolidin-2-yl)methoxy)pyrido[4,3-d]pyrimidin-7-yl)naphthalen-2-ol bis(2,2,2-trifluoroacetate)] | 6.93
CC(C)c1ccccc1-c1ncc2c(N3CC4CCC(C3)N4)nc(OCC34CCCN3C[C@H](F)C4)nc2c1F (stereo partly drawn) [Example 348, 4-((1R,5S)-3,8-diazabicyclo[3.2.1]octan-3-yl)-8-fluoro-2-((2-fluorotetrahydro-1H-pyrrolizin-7a(5H)-yl)methoxy)-7-(2-isopropylphenyl)pyrido[4,3-d]pyrimidine] | 0.779
O=C(O[C@@H]1CN2CCC[C@]2(COc2nc(N3C[C@H]4CC[C@@H](C3)N4)c3cnc(-c4cccc5cccc(Cl)c45)c(F)c3n2)C1)N1CCOCC1 [Example 436, (2S,7aR)-7a-(((4-((1R,5S)-3,8-diazabicyclo[3.2.1]octan-3-yl)-7-(8-chloronaphthalen-1-yl)-8-fluoropyrido[4,3-d]pyrimidin-2-yl)oxy)methyl)hexahydro-1H-pyrrolizin-2-yl morpholine-4-carboxylate] | 3.99
CN1C[C@H](F)C[C@H]1COc1nc(N2C[C@H]3CC[C@@H](C2)N3)c2cnc(-c3cc(O)cc4ccccc34)c(F)c2n1 [Example 16, 4-(4-((1R,5S)-3,8-diazabicyclo[3.2.1]octan-3-yl)-8-fluoro-2-(((2S,4R)-4-fluoro-1-methylpyrrolidin-2-yl)methoxy)pyrido[4,3-d]pyrimidin-7-yl)naphthalen-2-ol] | 3.83
OCCc1cccc2cccc(-c3ncc4c(N5C[C@H]6CC[C@@H](C5)N6)nc(OCC56CCCN5CCC6)nc4c3F)c12 [Example 239, 2-(8-(4-((1R,5S)-3,8-diazabicyclo[3.2.1]octan-3-yl)-8-fluoro-2-((tetrahydro-1H-pyrrolizin-7a(5H)-yl)methoxy)pyrido[4,3-d]pyrimidin-7-yl)naphthalen-1-yl)ethan-1-ol] | 2.95
Fc1c(-c2cccc(Cl)c2Cl)ncc2c(N3C[C@H]4CC[C@@H](C3)N4)nc(OCC34CCCN3CCC4)nc12 [Example 277, 4-((1R,5S)-3,8-diazabicyclo[3.2.1]octan-3-yl)-7-(2,3-dichlorophenyl)-8-fluoro-2-((hexahydro-1H-pyrrolizin-7a-yl)methoxy)pyrido[4,3-d]pyrimidine] | 3.68
Oc1cc(-c2ncc3c(N4C[C@H]5CC[C@@H](C4)N5)nc(OCCCN4CCOCC4)nc3c2F)c2ccccc2c1 [Example 22, 4-(4-((1R,5S)-3,8-diazabicyclo[3.2.1]octan-3-yl)-8-fluoro-2-(3-morpholinopropoxy)pyrido[4,3-d]pyrimidin-7-yl)naphthalen-2-ol] | 1.89
CO[C@@H]1C[C@@H](COc2nc(N3C[C@H]4CC[C@@H](C3)N4)c3cnc(-c4cccc5cccc(Cl)c45)c(F)c3n2)N(C)C1 [Example 34, 4-((1R,5S)-3,8-diazabicyclo[3.2.1]octan-3-yl)-7-(8-chloronaphthalen-1-yl)-8-fluoro-2-(((2S,4R)-4-methoxy-1-methylpyrrolidin-2-yl)methoxy)pyrido[4,3-d]pyrimidine] | 4.21
O=C1OCCN1C[C@H]1CC[C@@]2(COc3nc(N4CC5CCC(C4)N5)c4cnc(-c5cccc6cccc(Cl)c56)c(F)c4n3)CCCN12 [Example 442, 3-(((3R,7aR)-7a-(((4-(3,8-diazabicyclo[3.2.1]octan-3-yl)-7-(8-chloronaphthalen-1-yl)-8-fluoropyrido[4,3-d]pyrimidin-2-yl)oxy)methyl)hexahydro-1H-pyrrolizin-3-yl)methyl)oxazolidin-2-one] | 1.16
Cn1ccnc1CCOc1nc(N2C[C@H]3CC[C@@H](C2)N3)c2cnc(-c3cccc4cccc(Cl)c34)c(F)c2n1 [Example 114, 4-((1R,5S)-3,8-diazabicyclo[3.2.1]octan-3-yl)-7-(8-chloronaphthalen-1-yl)-8-fluoro-2-(2-(1-methyl-1H-imidazol-2-yl)ethoxy)pyrido[4,3-d]pyrimidine] | 10.3
Cc1nccn1CCOc1nc(N2C[C@H]3C[C@@H](O)[C@@H](C2)N3)c2cnc(-c3cccc4cccc(Cl)c34)c(F)c2n1 [Example 167, (1R,5R,6R)-3-(7-(8-chloronaphthalen-1-yl)-8-fluoro-2-(2-(2-methyl-1H-imidazol-1-yl)ethoxy)pyrido[4,3-d]pyrimidin-4-yl)-3,8-diazabicyclo[3.2.1]octan-6-ol] | 16.1
Oc1cc(-c2ncc3c(N4C[C@H]5CC[C@@H](C4)N5)nc(OCC4(C(F)(F)F)CC4)nc3c2F)c2ccccc2c1 [Example 51, 4-(4-((1R,5S)-3,8-diazabicyclo[3.2.1]octan-3-yl)-8-fluoro-2-((1-(trifluoromethyl)cyclopropyl)methoxy)pyrido[4,3-d]pyrimidin-7-yl)naphthalen-2-ol] | 12.1
CC1(C)CN2C[C@H](F)CC2(COc2nc(N3CC4CCC(C3)N4)c3cnc(-c4cccc5cccc(Cl)c45)c(F)c3n2)C1 (mixture of isomers) [Example 325, 4-((1R,5S)-3,8-diazabicyclo[3.2.1]octan-3-yl)-7-(8-chloronaphthalen-1-yl)-8-fluoro-2-((6-fluoro-2,2-dimethyltetrahydro-1H-pyrrolizin-7a(5H)-yl)methoxy)pyrido[4,3-d]pyrimidine] | > 16.7
CN1CCC[C@H]1COc1nc(N2C[C@H]3CC[C@@H](C2)N3)c2cnc(-c3cc(O)cc4cccc(Cl)c34)c(F)c2n1 [Example 63, 4-(4-((1R,5S)-3,8-diazabicyclo[3.2.1]octan-3-yl)-8-fluoro-2-(((S)-1-methylpyrrolidin-2-yl)methoxy)pyrido[4,3-d]pyrimidin-7-yl)-5-chloronaphthalen-2-ol] | 0.187
